Results: patent US11339151B2, “Aliphatic acid amide derivative” (Sumitomo Dainippon Pharma Co., Ltd., priority 2019, dated 2022)

Experiments:
[1] = Test 3-1: metabolic stability test in human hepatic microsome; format: in vitro ADME; conditions: microsome 0.1 mg/mL, test compound 0.1 μmol/L, 37° C., 30 minutes
Experimental: Test 3-1: Metabolic Stability Test in Human Hepatic Microsome
The metabolic stability of the present compound in human hepatic microsome was evaluated as mentioned below. Human hepatic microsome was obtained from Xenontech. Human hepatic microsome, NADPH, and each test compound were mixed in 25 mmol/L phosphate buffer solution (pH 7.4) to reach the following concentrations as shown below, and the mixture was incubated at 37° C. for 30 minutes. • Human hepatic microsome: 0.1 mg/mL • NADPH: 3.2 mmol/L • Test compound: 0.1 μmol/L
The residual ratio of test compound in each sample after 30 minutes was measured by LC-MS, and the metabolic stability in human hepatic microsome was calculated from the following formula. Metabolic stability in human hepatic microsome (mL/min/mg protein)=−LN (residual ratio)/30/0.1

human 5-HT7 receptor [2] = target: T1, human 5-HT7 receptor (Homo sapiens (Human), UniProt P34969); experiment: Test 2: antagonist activity for human 5-HT7 receptor (aequorin luminescence, CHO-K1 cells); format: cell-based; conditions: Gα16
Experimental: Test 2: Evaluation of Antagonist Activity for Human 5-HT2A Receptor and Human 5-HT7 Receptor
Aequorin, Gα 16 protein, and each receptor were transiently expressed in CHO-K1 cells (Chinese hamster ovary). The cells were cultivated in a CO2 incubator at 37° C. overnight, seeded into a 384-well plate, and stood at room temperature for 2 hours. Each compound dissolved in DMSO was added thereto, and changes in luminescence were measured by FDSS/μCELL drug discovery screening support system (Hamamatsu Photonics K.K.). As for antagonist activity, inhibitory activity of each compound was calculated by setting the luminescence level of wells to which 10 μmol/L endogenous ligand was added as 100%.

human D2 receptor = human D2 receptor (Homo sapiens (Human), UniProt P14416); experiment: Test 1: binding activity for human D2 receptor ([3H]Spiperone, CHO cell membrane fraction); conditions: [3H]Spiperone, room temperature 60 minutes
Experimental: (§1) Ki value was evaluated from dissociation constant which was calculated from saturated binding tests, and a substrate concentration, and it was used as an index for binding affinity.

human 5-HT7 receptor [3] = target: T1, human 5-HT7 receptor; experiment: Test 1: binding activity for human 5-HT7 receptor ([3H]SB-269970, CHO cell membrane fraction); conditions: [3H]SB-269970, room temperature 60 minutes
Experimental: as §1

hERG channel = hERG channel (Homo sapiens (Human), UniProt Q12809); experiment: Test 5: inhibitory activity for hERG channel (whole cell patch clamp, hERG-CHO cells); format: cell-based; conditions: hERG-CHO cells, auto patch clamp
Experimental: Test 5: Evaluation of Inhibitory Activity for hERG Channel
Inhibitory activity of the present compound for hERG channel was measured by whole cell patch clamp method with an auto patch clamp system using CHO cells in which hERG channel involved in human rapidly activating delayed rectifier potassium current (IKr) was forcibly expressed.
hERG-CHO cells purchased from ChanTest Cop. were cultured in a CO2 incubator at 37° C., and dissociated from a flask with trypsin shortly before the measurement of hERG current to prepare a cell suspension.
The cell suspension, the extracellular fluid, the intracellular fluid, and the measurement plate were set in an auto patch clamp system, and hERG current was measured by whole cell patch clamp method. […] Each pulse interval was 15 seconds. The data analysis was carried out with Qube Assay Software (Sophion Sophion). The test was carried out by applying incrementally 4 concentrations of each test compound, and the average of the maximum peak tail currents which were obtained from the last 3 stimulations in each concentration was determined as the evaluated data.

T1 sequence (P34969 whole entry): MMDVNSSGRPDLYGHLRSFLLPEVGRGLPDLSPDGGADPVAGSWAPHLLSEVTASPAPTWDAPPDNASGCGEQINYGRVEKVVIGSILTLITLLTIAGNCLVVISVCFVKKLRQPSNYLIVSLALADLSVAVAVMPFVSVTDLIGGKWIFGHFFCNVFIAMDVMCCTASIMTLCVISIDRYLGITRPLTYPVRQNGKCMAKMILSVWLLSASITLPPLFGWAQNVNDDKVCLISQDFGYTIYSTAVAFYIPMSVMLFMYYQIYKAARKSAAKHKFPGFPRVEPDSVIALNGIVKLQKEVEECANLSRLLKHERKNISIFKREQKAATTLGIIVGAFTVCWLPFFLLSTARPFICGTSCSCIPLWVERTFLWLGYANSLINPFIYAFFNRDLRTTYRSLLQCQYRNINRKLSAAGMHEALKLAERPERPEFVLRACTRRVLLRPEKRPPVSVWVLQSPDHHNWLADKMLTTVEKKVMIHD
human D2 receptor, sequence (P14416 whole entry): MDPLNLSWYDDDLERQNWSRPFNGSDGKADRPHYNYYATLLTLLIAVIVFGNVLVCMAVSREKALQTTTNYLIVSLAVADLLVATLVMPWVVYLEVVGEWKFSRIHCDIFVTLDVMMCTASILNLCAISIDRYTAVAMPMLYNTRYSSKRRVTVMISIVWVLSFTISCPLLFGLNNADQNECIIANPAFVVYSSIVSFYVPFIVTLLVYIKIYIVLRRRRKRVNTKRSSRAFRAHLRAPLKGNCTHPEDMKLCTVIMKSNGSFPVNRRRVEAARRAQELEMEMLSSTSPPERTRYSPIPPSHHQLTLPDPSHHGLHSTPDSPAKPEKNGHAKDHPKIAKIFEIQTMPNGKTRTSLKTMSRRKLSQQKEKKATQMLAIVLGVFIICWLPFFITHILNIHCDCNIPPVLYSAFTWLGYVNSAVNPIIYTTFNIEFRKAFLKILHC
hERG channel, sequence (Q12809 whole entry): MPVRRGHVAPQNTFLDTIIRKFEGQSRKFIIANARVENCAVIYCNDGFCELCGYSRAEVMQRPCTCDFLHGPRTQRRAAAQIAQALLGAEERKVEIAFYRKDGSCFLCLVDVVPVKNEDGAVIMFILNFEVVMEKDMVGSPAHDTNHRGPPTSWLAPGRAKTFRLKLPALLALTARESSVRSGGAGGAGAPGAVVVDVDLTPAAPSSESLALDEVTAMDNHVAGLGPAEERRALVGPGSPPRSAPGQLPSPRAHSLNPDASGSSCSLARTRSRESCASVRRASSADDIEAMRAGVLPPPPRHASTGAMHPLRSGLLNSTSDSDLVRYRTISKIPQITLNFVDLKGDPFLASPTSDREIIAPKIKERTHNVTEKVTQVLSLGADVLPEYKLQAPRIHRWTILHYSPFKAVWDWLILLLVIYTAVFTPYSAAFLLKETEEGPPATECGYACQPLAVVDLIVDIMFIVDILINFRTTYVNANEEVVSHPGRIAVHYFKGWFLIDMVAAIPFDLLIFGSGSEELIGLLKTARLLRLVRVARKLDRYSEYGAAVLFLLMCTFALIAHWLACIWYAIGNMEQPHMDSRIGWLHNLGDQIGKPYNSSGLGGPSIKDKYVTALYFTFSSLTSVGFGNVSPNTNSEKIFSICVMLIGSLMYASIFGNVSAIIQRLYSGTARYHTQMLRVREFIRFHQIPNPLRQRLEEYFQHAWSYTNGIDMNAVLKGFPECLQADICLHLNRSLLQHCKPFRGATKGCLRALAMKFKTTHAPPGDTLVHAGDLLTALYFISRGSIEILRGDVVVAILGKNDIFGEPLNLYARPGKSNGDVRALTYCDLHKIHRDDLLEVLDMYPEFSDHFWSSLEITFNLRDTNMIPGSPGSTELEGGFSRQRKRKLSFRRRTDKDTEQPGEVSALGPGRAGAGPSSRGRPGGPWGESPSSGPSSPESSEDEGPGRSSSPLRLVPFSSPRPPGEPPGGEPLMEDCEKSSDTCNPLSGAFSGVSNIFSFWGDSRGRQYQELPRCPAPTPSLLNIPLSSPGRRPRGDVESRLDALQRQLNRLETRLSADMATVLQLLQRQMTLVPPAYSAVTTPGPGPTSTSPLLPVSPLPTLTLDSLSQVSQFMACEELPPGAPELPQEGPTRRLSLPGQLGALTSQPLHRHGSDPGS

## CCN(CCN1CCC(c2n[nH]c3cc(F)ccc23)CC1)C(=O)C(C)O (stereo not drawn) [Example 19, N-Ethyl-N-{2-[4-(6-fluoro-1H-indazol-3-yl)piperidin-1-yl]ethyl}-2-hydroxypropanamide]
[1]
  Metabolic stability in human hepatic microsome: <0.05 mL/min/mg protein
Human 5-HT7 receptor [2]
  IC50: 61 nM
Human D2 receptor
  Ki: 105 nM
Human 5-HT7 receptor [3]
  Ki: 2.3 nM
hERG channel
  IC50: > 10000 nM

## CCN(CCN1CCC(c2c[nH]c3ccccc23)CC1)C(=O)C(C)O (stereo not drawn) [Example 22, N-Ethyl-2-hydroxy-N-{2-[4-(1H-indol-3-yl)piperidin-1-yl]ethyl}propanamide]
[1]
  Metabolic stability in human hepatic microsome: <0.05 mL/min/mg protein
Human 5-HT7 receptor [2]
  IC50: 40 nM
Human D2 receptor
  Ki: 528 nM
Human 5-HT7 receptor [3]
  Ki: 5.8 nM
hERG channel
  IC50: > 10000 nM

## CCN(CCN1CCC(c2c[nH]c3ccccc23)CC1)C(=O)[C@H](C)O [Example 23, (2S)—N-Ethyl-2-hydroxy-N-{2-[4-(1H-indol-3-yl)piperidin-1-yl]ethyl}propanamide]
[1]
  Metabolic stability in human hepatic microsome: <0.05 mL/min/mg protein
Human 5-HT7 receptor [2]
  IC50: 68 nM
Human D2 receptor
  Ki: > 1000 nM
Human 5-HT7 receptor [3]
  Ki: 7.9 nM
hERG channel
  IC50: > 10000 nM

## CCN(CCN1CCC(c2noc3ccccc23)CC1)C(=O)C(C)O (stereo not drawn) [Example 25]
[1]
  Metabolic stability in human hepatic microsome: <0.05 mL/min/mg protein
Human 5-HT7 receptor [2]
  IC50: 26 nM
Human D2 receptor
  Ki: 1390 nM
Human 5-HT7 receptor [3]
  Ki: 7.7 nM
hERG channel
  IC50: > 10000 nM

## CCN(CCN1CCN(c2noc3ccccc23)CC1)C(=O)C(C)O (stereo not drawn) [Example 26]
[1]
  Metabolic stability in human hepatic microsome: <0.05 mL/min/mg protein
Human 5-HT7 receptor [2]
  IC50: 71 nM
Human D2 receptor
  Ki: > 10000 nM
Human 5-HT7 receptor [3]
  Ki: 22.1 nM
hERG channel
  IC50: > 10000 nM

## CCN(CCN1CCN(c2noc3cc(F)ccc23)CC1)C(=O)C(C)O (stereo not drawn) [Example 27]
[1]
  Metabolic stability in human hepatic microsome: <0.05 mL/min/mg protein
Human 5-HT7 receptor [2]
  IC50: 73 nM
Human D2 receptor
  Ki: 2160 nM
Human 5-HT7 receptor [3]
  Ki: 11.1 nM
hERG channel
  IC50: > 10000 nM

## CC[C@@H](O)C(=O)N(CC)CCN1CCC(c2noc3cc(F)ccc23)CC1 [Example 29]
[1]
  Metabolic stability in human hepatic microsome: <0.05 mL/min/mg protein
Human 5-HT7 receptor [2]
  IC50: 99 nM
Human D2 receptor
  Ki: 146 nM
Human 5-HT7 receptor [3]
  Ki: 2.6 nM
hERG channel
  IC50: 900 nM

## CC(O)C(=O)N(CCN1CCC(c2noc3cc(F)ccc23)CC1)CC1CC1 (stereo not drawn) [Example 30]
[1]
  Metabolic stability in human hepatic microsome: <0.05 mL/min/mg protein
Human 5-HT7 receptor [2]
  IC50: 39 nM
Human D2 receptor
  Ki: 153 nM
Human 5-HT7 receptor [3]
  Ki: 6.6 nM
hERG channel
  IC50: 1200 nM

## CC(O)C(=O)N(CCN1CCC(c2noc3cc(F)ccc23)CC1)C(C)C (stereo not drawn) [Example 31]
[1]
  Metabolic stability in human hepatic microsome: <0.05 mL/min/mg protein
Human 5-HT7 receptor [2]
  IC50: 64 nM
Human D2 receptor
  Ki: 89 nM
Human 5-HT7 receptor [3]
  Ki: 1.2 nM
hERG channel
  IC50: 3100 nM

## CCN(CCN1CCC(c2noc3cc(F)ccc23)CC1)C(=O)C1CCCCC1O (stereo not drawn) [Example 33]
[1]
  Metabolic stability in human hepatic microsome: 0.268 mL/min/mg protein
Human 5-HT7 receptor [2]
  IC50: 59 nM
Human D2 receptor
  Ki: 55 nM
Human 5-HT7 receptor [3]
  Ki: 1.6 nM
hERG channel
  IC50: 2200 nM

## CCN(CCN1CCC(c2noc3cc(F)ccc23)CC1)C(=O)C(O)C(F)(F)F (stereo not drawn) [Example 34]
[1]
  Metabolic stability in human hepatic microsome: <0.05 mL/min/mg protein
Human 5-HT7 receptor [2]
  IC50: 78 nM
Human D2 receptor
  Ki: 247 nM
Human 5-HT7 receptor [3]
  Ki: 4.6 nM
hERG channel
  IC50: 7300 nM

## CC(C)N(CCN1CCC(c2noc3cc(F)ccc23)CC1)C(=O)CCO [Example 35]
[1]
  Metabolic stability in human hepatic microsome: <0.05 mL/min/mg protein
Human 5-HT7 receptor [2]
  IC50: 81 nM
Human D2 receptor
  Ki: < 100 nM
Human 5-HT7 receptor [3]
  Ki: 3.8 nM
hERG channel
  IC50: 4300 nM

## CCN(CCN1CCC(c2noc3cc(F)ccc23)CC1)C(=O)C(C)CO (stereo not drawn) [Example 37]
[1]
  Metabolic stability in human hepatic microsome: <0.05 mL/min/mg protein
Human 5-HT7 receptor [2]
  IC50: 66 nM
Human D2 receptor
  Ki: < 100 nM
Human 5-HT7 receptor [3]
  Ki: 1.1 nM
hERG channel
  IC50: > 10000 nM

## CCN(CCCN1CCC(c2noc3cc(F)ccc23)CC1)C(=O)[C@H](C)O [Example 38]
[1]
  Metabolic stability in human hepatic microsome: <0.05 mL/min/mg protein
Human 5-HT7 receptor [2]
  IC50: 59 nM
Human D2 receptor
  Ki: 352 nM
Human 5-HT7 receptor [3]
  Ki: 9.6 nM
hERG channel
  IC50: > 10000 nM

## CC(C)N(CCN1CCC(c2noc3cc(F)ccc23)CC1)C(=O)[C@H](C)O [Example 41]
[1]
  Metabolic stability in human hepatic microsome: <0.05 mL/min/mg protein
Human 5-HT7 receptor [2]
  IC50: 7 nM
Human D2 receptor
  Ki: < 100 nM
Human 5-HT7 receptor [3]
  Ki: 1.8 nM
hERG channel
  IC50: 6700 nM
